Here are results for 11 compounds from ChEMBL document CHEMBL1201862, “PubChem BioAssay data set” (2004).

SMILES strings stand for the structures.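 Grown in 96-well plates, cells were treated for 48 hours with each compound at five concentrations. Insufficient inhibition: endpoint recorded as highest concentration tested. Abbreviation: GI50, concentration required for 50% inhibition of growth.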 Activity calls are given as the source filed them. Cut-off read from the data, not from the text of the source: active = GI50 up to about 1.1 µM and inactive = higher. Where a SMILES comes first, the peptide text is derived from it. The star is where a group is joined. OSu = O=C1CCC(=O)N1O*; OBn = c1ccc(CO*)cc1; Bn = c1ccc(C*)cc1

Common to all, as to assay: NCI anticancer screen, dose series, 48 h
Experiment [1] deals with CCRF-CEM.
In experiment [2] the test system is HCC 2998.
For experiment [3], the system named is HCT-15.
Experiment [4] deals with HOP-62.
Experiment [5] concerns HT-29.
Experiment [6] relates to K562.
Experiment [7] concerns MCF7.
The test system of experiment [8] is MOLT-4.
In experiment [9] the test system is Malme-3M.
For experiment [10], the system named is NCI-H23.
Experiment [11] has as its system NCI-H522.
The subject of experiment [12] is NCI/ADR-RES.
The subject of experiment [13] is OVCAR-3.
Experiment [14] concerns RPMI-8226.
The test system of experiment [15] is SF-268.
Experiment [16] concerns SF-295.
For experiment [17], the system named is SK-MEL-5.
In experiment [18] the test system is SN12C.
The test system of experiment [19] is SW-620.
Experiment [20] relates to TK-10.

Turning to `CSCSCC(CO)NC(=O)/C=C\c1c(C)[nH]c(=O)[nH]c1=O` (stereo not given), the GI50 in [1] is 2.27 µM (inactive); in experiment [2], 5.57 µM (inactive); in [3], 17.9 µM; in experiment [4], 38.8 µM (inactive); in experiment [5], 19.3 µM (inactive); in [6], 5.2 µM (inactive). Also, the GI50 in [7] was 2.19 µM (inactive); in experiment [8] it was 7.74 µM (inactive); in experiment [9], 8.18 µM (inactive); in [10], 17.7 µM (inactive); in experiment [11], 0.959 µM (active); in [12], 19 µM (inactive). Also, the GI50 was 1.79 µM (inactive) in [13]; 51.5 µM (inactive) in [14]; 7.64 µM (inactive) in experiment [15]; 76.6 µM (inactive) in [16]; 21.5 µM (inactive) in experiment [17]; 8.15 µM (inactive) in experiment [18]. Further, the GI50 in [19] was 15.7 µM (inactive).

For the compound `COC(=O)[C@@H](O)[C@](O)(CCC(C)C)C(=O)O[C@@H]1C(OC)=C[C@]23CCCN2CCc2cc4c(cc2[C@H]13)OCO4`, the GI50 in experiment [1] is 1.51 µM (inactive); in [2] it was 0.233 µM (active); in [3], 1.68 µM; in experiment [4], 0.575 µM (active); in experiment [5], 0.891 µM (active); in experiment [6], 0.659 µM (active). Further, the GI50 is 0.351 µM (active) in experiment [7]; 0.32 µM (active) in [8]; 0.459 µM (active) in experiment [9]; 1.55 µM (inactive) in experiment [10]; 0.598 µM (active) in experiment [11]; 11.8 µM (inactive) in experiment [12]. The GI50 is 1.24 µM (inactive) in experiment [13]; 1.34 µM (inactive) in [14]; 0.984 µM (active) in experiment [15]; 1.53 µM (inactive) in experiment [16]; 1.48 µM (inactive) in experiment [17]; 2.36 µM (inactive) in experiment [18]. In addition, the GI50 in experiment [19] is 2.21 µM (inactive).

On to `N/C(=N\O)N/N=C\c1ccccc1O`, for which the GI50 is 5.6 µM (inactive) in [1]; 3.24 µM (inactive) in experiment [2]; 3.48 µM in experiment [3]; 11.2 µM (inactive) in experiment [4]; 4.19 µM (inactive) in [5]; 3.99 µM (inactive) in [6]. Further, the GI50 was 4.32 µM (inactive) in experiment [7]; 7.13 µM (inactive) in experiment [8]; 22.4 µM (inactive) in [9]; 7.6 µM (inactive) in experiment [10]; 11.8 µM (inactive) in [11]; 4.14 µM (inactive) in [12]. The GI50 in experiment [13] was 10.4 µM (inactive); in [14], 1.48 µM (inactive); in experiment [15], 12.4 µM (inactive); in [16] it was 4 µM (inactive); in experiment [17], 10 µM (inactive); in experiment [18] it was 11.6 µM (inactive). In addition, the GI50 in experiment [19] was 13.1 µM (inactive).

As to `Oc1ccc(Cl)cc1C1=Nn2c(COc3ccc4c(c3)CCCC4)nnc2SC1`, the GI50 in experiment [1] is 17 µM (inactive); in experiment [3] it was 17.9 µM; in experiment [4] it was 13.2 µM (inactive); in [6], 10.5 µM (inactive); in experiment [7], 14.7 µM (inactive); in experiment [8], 11 µM (inactive). Moreover, the GI50 is > 100 µM (inactive) in [9]; 11.4 µM (inactive) in experiment [10]; 6.84 µM (inactive) in experiment [11]; 14.8 µM (inactive) in [12]; 12.6 µM (inactive) in experiment [13]; 4.99 µM (inactive) in [14]. For the same compound, the GI50 in experiment [15] is 16.4 µM (inactive); in [16] it was 14 µM (inactive); in experiment [17], 5.25 µM (inactive); in [18], 6.28 µM (inactive); in experiment [19], 16.8 µM (inactive); in experiment [20], 4.72 µM (inactive).

On to `CCCCCCCCC1=CCC(CN(C)C)C1=O` (stereo not given), for which the GI50 was 10.6 µM (inactive) in [1]; 14 µM (inactive) in [2]; 17.8 µM in experiment [3]; > 31.6 µM (inactive) in experiment [4]; 19.4 µM (inactive) in [5]; 9.82 µM (inactive) in [6]. Also, the GI50 in experiment [7] is 4.69 µM (inactive); in [8], 19 µM (inactive); in [9], 17.8 µM (inactive); in [10], 19.9 µM (inactive); in [11], 16.7 µM (inactive); in experiment [12], 20.5 µM (inactive). In addition, the GI50 in [13] is 18.3 µM (inactive); in [14], 1.34 µM (inactive); in [15], 18.3 µM (inactive); in experiment [16], > 42.1 µM (inactive); in experiment [17] it was 20.1 µM (inactive); in experiment [18], 17.1 µM (inactive). The GI50 in [19] is 19.9 µM (inactive).

For `C=C1C(=O)O[C@H]2C/C(C)=C/CC[C@@]3(C)O[C@](C)(CC[C@@H]3I)[C@@H](I)C[C@@H]12`, the GI50 in [1] is 0.592 µM (active); in [2] it was 4.09 µM (inactive); in experiment [3], 2.4 µM; in [4], 8.59 µM (inactive); in experiment [5], 3.37 µM (inactive); in [6], 1.95 µM (inactive). Also, the GI50 in [7] is 2.25 µM (inactive); in experiment [8] it was 0.925 µM (active); in experiment [9], 7.59 µM (inactive); in [10] it was 8.69 µM (inactive); in [11], 3.05 µM (inactive); in [12], 1.44 µM (inactive). Moreover, the GI50 was 3.21 µM (inactive) in [13]; 0.959 µM (active) in experiment [14]; 6.92 µM (inactive) in [15]; 6.84 µM (inactive) in experiment [16]; 3.32 µM (inactive) in experiment [17]; 4.2 µM (inactive) in experiment [18]. Moreover, the GI50 was 3.81 µM (inactive) in experiment [19] and 6.03 µM (inactive) in [20].

In the case of `CN1C(CC(O)c2ccccc2)CCCC1CC(O)(c1ccccc1)c1ccccc1` (stereo not given), the GI50 is 19.8 µM (inactive) in experiment [1]; 22.9 µM (inactive) in experiment [2]; 16.5 µM in [3]; 14.3 µM (inactive) in experiment [4]; 12.1 µM (inactive) in [5]; 29 µM (inactive) in [6]. The GI50 in [7] was 20.9 µM (inactive); in [8] it was 17.5 µM (inactive); in experiment [9] it was 18.2 µM (inactive); in [10], 16.7 µM (inactive); in experiment [11], 19.9 µM (inactive); in experiment [12], 16.9 µM (inactive). Further, the GI50 is 15.6 µM (inactive) in experiment [13]; 17.1 µM (inactive) in experiment [14]; 18.7 µM (inactive) in experiment [15]; 16.9 µM (inactive) in experiment [16]; 16.6 µM (inactive) in [17]; 17.8 µM (inactive) in [18]. For the same compound, the values for the GI50 in experiment [19] and in experiment [20] were 19.4 µM (inactive) and 18.5 µM (inactive), respectively.

Turning to `O=C1OC(c2ccccc2)=N/C1=C\c1cccnc1`, the GI50 in [1] is 29.2 µM (inactive); in [2], > 100 µM (inactive); in [3] it was more than 100 µM; in experiment [4] it was > 100 µM (inactive); in [5], > 100 µM (inactive); in [6] it was 34.8 µM (inactive). Moreover, the GI50 is > 100 µM (inactive) in [7]; 2.84 µM (inactive) in experiment [8]; > 100 µM (inactive) in experiment [10]; > 100 µM (inactive) in [11]; > 100 µM (inactive) in experiment [12]; > 100 µM (inactive) in [13]. Also, the GI50 in [14] is 48.3 µM (inactive); in experiment [15], > 100 µM (inactive); in [16] it was > 100 µM (inactive); in experiment [17] it was > 100 µM (inactive); in experiment [19], > 100 µM (inactive); in [20], > 100 µM (inactive).

Consider `CC(C)CC(NC(=O)C(N)CCC(=O)OCc1ccccc1)C(=O)NC(COCc1ccccc1)C(=O)NC(Cc1ccccc1)C(=O)ON1C(=O)CCC1=O` (stereo not given) (H-E(OBn)LS(Bn)F-OSu; configuration not given here), for which the GI50 in [1] was 26.6 µM (inactive); in [5], 38.2 µM (inactive); in [7], 27.4 µM (inactive); in experiment [8] it was 25.5 µM (inactive); in experiment [9] it was 29.2 µM (inactive); in [10] it was 26.4 µM (inactive). The GI50 is 18.5 µM (inactive) in experiment [11]; 28.5 µM (inactive) in experiment [12]; 19.9 µM (inactive) in experiment [14]; 48.3 µM (inactive) in experiment [15]; 24.4 µM (inactive) in experiment [16]; 17.4 µM (inactive) in experiment [17]. The GI50 is 29.8 µM (inactive) in experiment [18], 37.8 µM (inactive) in experiment [19] and 26.7 µM (inactive) in experiment [20].

Turning to `CC1=COC2=C(C)C(=O)C(=O)c3c(C)ccc1c32` [MANSONONE F], the GI50 in experiment [1] is 2.98 µM (inactive); in experiment [2], 6.27 µM (inactive); in experiment [3], 2.43 µM; in [4], 4.52 µM (inactive); in [5] it was 3.15 µM (inactive); in experiment [6] it was 3.66 µM (inactive). For the same compound, the GI50 was 2.69 µM (inactive) in experiment [7]; 2.56 µM (inactive) in [8]; 1.69 µM (inactive) in experiment [9]; 2.84 µM (inactive) in experiment [10]; 2.17 µM (inactive) in [11]; 2.1 µM (inactive) in experiment [12]. In addition, the GI50 in experiment [13] is 0.349 µM (active); in experiment [14] it was 1.42 µM (inactive); in [15], 4.44 µM (inactive); in experiment [16] it was 5.48 µM (inactive); in experiment [17], 0.859 µM (active); in experiment [18], 3.71 µM (inactive). The GI50 in experiment [19] is 2.61 µM (inactive); in [20] it was 42.1 µM (inactive).

Consider `CC(C)=CCc1c(O)ccc2ccc(=O)oc12` [OSTHENOL], for which the GI50 in [1] was 33.9 µM (inactive); in experiment [2], 45.8 µM (inactive); in [3], 60.1 µM; in [5] it was > 100 µM (inactive); in experiment [6] it was 37.6 µM (inactive); in [7], 34.9 µM (inactive). For the same compound, the GI50 was 26.9 µM (inactive) in experiment [8]; 38.2 µM (inactive) in experiment [9]; 55.5 µM (inactive) in [10]; 48.2 µM (inactive) in experiment [11]; 20.9 µM (inactive) in [12]; 60.1 µM (inactive) in experiment [13]. For the same compound, the GI50 in experiment [14] is 26.7 µM (inactive); in experiment [15], 33.7 µM (inactive); in experiment [16] it was 45.6 µM (inactive); in [17], 15.3 µM (inactive); in experiment [18], > 91.8 µM (inactive); in experiment [19] it was > 100 µM (inactive).
